A word on the IC50: it is the concentration that gives 50% inhibition.

The text below walks through data of US8940740B2, “Small molecule inhibitors of bacterial motility and a high throughput screening assay for their identification” (priority 2010, dated 2015).

The test system of assay [1] is Vibrio cholerae strain C7258. Nature of the assay: Bacterial viability/toxicity readout with alamarBlue in 384-well soft agar HTS assay. Conditions: for IC50: Vibrio cholerae, C7258, toxicity of compound to bacteria as measured by alamarBlue, read-out: Inhibition IC50. Type of assay: cell-based.
The subject of assay [2] is Vibrio cholerae strain C7258. Nature of the assay: Bacterial motility in 384-well soft agar HTS assay, off-site OD615 reading. Type of assay: cell-based. The conditions noted are these: for IC50: Vibrio cholerae, C7258, inhibition of bacterial motility, optical density read off-site from inoculation point, read-out: Motility OD IC50; for Control average OD615 in pilot screen: pilot screen control wells.

The test system of assay [3] is Vibrio cholerae strain C7258. Nature of the assay: Swarm agar plates stabbed with saturated cultures. Type of assay: cell-based. Conditions: swarm agar stabbed with saturated culture of strain C7258.
The test system of assay [4] is Vibrio cholerae strain C7258. The assay is described as follows: Growth of strain C7258 in broth containing test compound. Type of assay: cell-based. The conditions noted are these: strain C7258, LB medium; Q24DA 10 μg/mL (FIG. 2).
Assay [5] relates to polar flagellum / flagellin FlaA of V. cholerae strain C7258. The assay is described as follows: Flagellum assembly by transmission electron microscopy and FlaA western blot. Type of assay: cell-based, Vibrio cholerae. On the technique in general: In western blotting, separated proteins are transferred to a membrane and probed.
Assay [6] deals with cholera toxin and toxin-co-regulated pilus production by strain C7258. Type of assay: cell-based, Vibrio cholerae.
Assay [7] concerns V. cholerae biofilm formation. Type of assay: cell-based, Vibrio cholerae.
Assay [8] deals with V. cholerae 0395, V. parahaemolyticus, V. vulnificus. Nature of the assay: Swarm agar plates with different pathogenic Vibrios. Type of assay: cell-based, Vibrio. The conditions noted are these: polar (SMF) vs lateral (PMF) flagellum. The source says:
V. cholerae and V. vulnificus make a single polar flagellum (Fla) powered by sodium motive force (SMF). […] (A) V. cholerae 0395; (B) V. parahaemolyticus B22 (Fla^+ Laf^+); (C) V. parahaemolyticus LM5674 (Fla^+ Laf^+); (D) V. parahaemolyticus LM1017 (Fla^+ Laf^−); (E) V. parahaemolyticus LM5392 (Fla^− Laf^+); (F) V. parahaemolyticus 7890 (Fla^+ Laf^−); (G) V. vulnificus LAM624.

In assay [9] the test system is Vibrio cholerae strain C7258. The assay is described as follows: Growth with PMF blocked by CCCP (Na+ bioenergetics). Type of assay: cell-based. Conditions: LB pH 8.6, 0.3 M NaCl, CCCP 5 μM, Q24DA 10 μg/mL.
Where [10] appears, read: assay validation, phenamil at 100 μM.

Values after ≈ are worked out from the molar mass of the structure shown. Some results are limits rather than exact numbers.

As to `COc1ccccc1Nc1nc(NCCO)c2ccccc2n1` [compound 27916], the half-maximal inhibitory concentration (IC50) is 38.1 µg/mL (≈ 123 µM) in assay [1] and 49.5 µg/mL (≈ 159 µM) in [2].
As for `OCCNc1nc(Nc2ccccc2O)nc2ccccc12` [compound 27911], the IC50 in [1] was 34.2 µg/mL (≈ 116 µM); in [2], 29.5 µg/mL (≈ 99.7 µM).
On the same counts, the results for `c1ccc(CN2CCN(c3nc(NCc4ccco4)c4ccccc4n3)CC2)cc1` [compound 27307] are 37.9 µg/mL (≈ 94.8 µM) and 34.9 µg/mL (≈ 87.3 µM).
For the compound `NC(=Nc1ccccc1)NC(=O)c1nc(Cl)c(N)nc1N` [phenamil, reference compound], the “Effect on viability (alamarBlue reading)” value in assay [1] (setting [10]) is reported as “little effect on viability”. The “Effect on motility (OD615 reading)” value in assay [2] (setting [10]) is “inhibitory effect on motility”. Moreover, the “Control average OD615 in pilot screen” value in assay [2] is “Ave-0.10 OD615, CV-3.2”.
Consider `Cc1ccc(Nc2nc(NCCO)c3ccccc3n2)c(C)c1` [compound 27918], for which the IC50 in assay [1] turned out to be 15.6 µg/mL (≈ 50.4 µM); in [2], 6.1 µg/mL (≈ 19.8 µM).
On the same counts, the results for `Cc1ccc(Nc2nc(NCc3ccco3)c3ccccc3n2)cc1` [compound 27296] are 11.1 µg/mL (≈ 33.5 µM) and 3.77 µg/mL (≈ 11.4 µM).
As for `Cc1cc(C)cc(Nc2nc(NCC3CCCO3)c3ccccc3n2)c1` (stereo not drawn) [compound 27929], the IC50 was 6.11 µg/mL (≈ 17.5 µM) in [1] and 6.89 µg/mL (≈ 19.8 µM) in assay [2].
For `COc1ccc(Nc2nc(N3CCCC3)nc3ccccc23)c(OC)c1` [compound 27301], the results for the IC50 in [1] and in [2] were 82 µg/mL (≈ 234 µM) and 46.6 µg/mL (≈ 133 µM), respectively.
As for `Cc1ccc(C)c(Nc2nc(NCCO)c3ccccc3n2)c1` [AB00343282], the IC50 in assay [1] turned out to be 25.7 µg/mL (≈ 83.2 µM); in assay [2], 8.76 µg/mL (≈ 28.4 µM). Moreover, the “Motility in swarm agar (spread from inoculation site)” value in [3] (listed as Q24DA) was “motility inhibition”; in [3] (listed as quinazoline 2,4 diamine) it was “completely abolished motility”. Besides, in [4], the “Effect on growth rate in broth” value is “no effect on growth rate”. Besides, in [5] (Western blot analysis), the “Level of expression of major flagellin protein FlaA” value is reported as “nor did it affect”. Also, the “Expression, secretion and assembly of wild type flagellum” value in assay [5] (transmission electron microscopy) was “does not inhibit”. For the same compound, in assay [6], the “V. cholerae virulence gene expression” value is reported as “inhibits V. cholerae virulence gene expression”. Besides, in [7], the Biofilm formation entry is on record as “negative effect on biofilm formation”. The “Flagellum specificity among pathogenic Vibrios” value in assay [8] is “specific for the polar flagellum powered by SMF”. In addition, the “Effect on growth inhibition by blocking the PMF” value in [9] was “enhances the inhibitory effect of blocking the PMF”.
On to `Cc1ccc(O)c(Nc2nc(NCCO)c3ccccc3n2)c1` [compound 27915], for which the IC50 was 23 µg/mL (≈ 74.2 µM) in [1] and 29.9 µg/mL (≈ 96.2 µM) in [2].
On the same counts, the results for `COc1ccc(C)cc1Nc1nc(N)c2ccccc2n1` [compound 27284] are more than 100 µg/mL and 81.2 µg/mL (≈ 290 µM).
Taken in the same sequence, the figures for `OCCNc1nc(NCCc2cccs2)nc2ccccc12` [compound 27917] were 27 µg/mL (≈ 85.9 µM) and 19.7 µg/mL (≈ 62.7 µM).
On the same counts, the results for `Fc1ccccc1Nc1nc(NCc2ccccc2)c2ccccc2n1` [compound 27299] are 100 µg/mL (≈ 290 µM) and 6.37 µg/mL (≈ 18.5 µM).
As to `Oc1ccccc1Nc1nc(NCC2CCCO2)c2ccccc2n1` (stereo not drawn) [compound 27928], the half-maximal inhibitory concentration (IC50) in [1] came out at 19.4 µg/mL (≈ 57.6 µM); in assay [2], 16.5 µg/mL (≈ 49 µM).
Taken in the same sequence, the figures for `Oc1ccccc1Nc1nc(NCc2ccco2)c2ccccc2n1` [compound 27297] were 81.9 µg/mL (≈ 246 µM) and 37.8 µg/mL (≈ 114 µM).
On the same counts, the results for `Cc1cc(C)cc(Nc2nc(NCCO)c3ccccc3n2)c1` [compound 27914] are 10.1 µg/mL (≈ 32.6 µM) and 6.96 µg/mL (≈ 22.6 µM).
Taken in the same sequence, the figures for `OCCNc1nc(Nc2ccccc2F)nc2ccccc12` [compound 27912] were 14.4 µg/mL (≈ 48.4 µM) and 4.89 µg/mL (≈ 16.4 µM).
As to `c1coc(CNc2nc(NCC3CCCO3)c3ccccc3n2)c1` (stereo not drawn) [compound 27926], the figures for the IC50 in assay [1] and in assay [2] were 35.6 µg/mL (≈ 110 µM) and 24.7 µg/mL (≈ 76.2 µM), respectively.
For `CN(C)[C@@H]1C(O)=C(C(N)=O)C(=O)[C@@]2(O)C(O)=C3C(=O)c4c(O)cccc4[C@@](C)(O)[C@H]3C[C@@H]12` [tetracycline, reference compound], the “Control average OD615 in pilot screen” value in assay [2] is on record as “Ave-0.10 OD615, CV-3.6”.
Regarding `OCCNc1nc(Nc2cccc(O)c2)nc2ccccc12` [compound 27910], the IC50 in [1] stood at 47 µg/mL (≈ 159 µM); in assay [2] it was 22.2 µg/mL (≈ 74.8 µM).
Taken in the same sequence, the figures for `FC(F)(F)c1cccc(Nc2nc(NCC3CCCO3)c3ccccc3n2)c1` (stereo not drawn) [compound 27930] were 81.2 µg/mL (≈ 209 µM) and 7.59 µg/mL (≈ 19.5 µM).
In the case of `OCCNc1nc(Nc2ccc3c(c2)OCO3)nc2ccccc12` [compound 27919], the IC50 in assay [1] was determined as 29.8 µg/mL (≈ 91.8 µM); in [2] it was 10.8 µg/mL (≈ 33.2 µM).
On the same counts, the results for `O=[N+]([O-])c1ccc(N2CCN(c3nc(N4CCN(CCO)CC4)nc4ccccc34)CC2)cc1` [compound 27310] are 55.4 µg/mL (≈ 120 µM) and 77.2 µg/mL (≈ 167 µM).
On the same counts, the results for `OCCNc1nc(NCc2ccco2)nc2ccccc12` [compound 27908] are more than 100 µg/mL and 45.6 µg/mL (≈ 160 µM).
